For one experiment, the target named is T1, mTOR (Homo sapiens, UniProt P42345).
T1 construct: endogenous in cells; host or cells: Jurkat, clone E6-1 (ATCC TIB-152) cell lysate
The experiment in a line: mTOR kinobeads assay (competitive binding in Jurkat cell lysate, immunodetection). As to conditions: kinobeads assay, Table 6; read-out: Inhibition values (IC50) mTOR. A digest of the protocol: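 IC50 derived from dose-response curves of mTOR captured on immobilized phenylmorpholin-chromen beads, detected by antibody dot blot with infrared fluorescence.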

The target in the next experiment is T2, PI3K delta (PI3 Kd) (Homo sapiens, UniProt O00329).
T2 construct: endogenous in cells; host or cells: Jurkat, clone E6-1 (ATCC TIB-152) cell lysate
The experiment in a line: kinobeads assay, PI3K delta. It is filed as binding. As to conditions: kinobeads assay, Table 6; read-out: Inhibition values (IC50) PI3Kd. A digest of the protocol:
(§1)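 IC50 values came from dose-response curves after test compound (1:3 series) competed with an immobilized phenylmorpholin-chromen affinity matrix for kinases in Jurkat lysate at 5 mg/mL protein. Eluted captured DNA-PK and PI3Kδ were measured by specific-antibody dot blot and infrared imaging. Buffer was Tris pH 7.4, NP40, MgCl2, NaCl, vanadate, DTT, NaF.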

Experiment [1] addresses T3, DNA-dependent protein kinase (DNA-PK) (Homo sapiens, UniProt P78527).
T3 construct: endogenous in cells; host or cells: Jurkat, clone E6-1 (ATCC TIB-152) cell lysate
The experiment in a line: kinobeads assay, DNA-PK. It is filed as binding. As to conditions: kinobeads assay, Table 6; read-out: Inhibition values (IC50) DNAPK. The gist of the method: as §1

Structures are written as SMILES. A value given as a limit tells only on which side of the number the result lay.

One may read the IC50 as the concentration that inhibits the measured activity by half.

T3 sequence (P78527 whole entry): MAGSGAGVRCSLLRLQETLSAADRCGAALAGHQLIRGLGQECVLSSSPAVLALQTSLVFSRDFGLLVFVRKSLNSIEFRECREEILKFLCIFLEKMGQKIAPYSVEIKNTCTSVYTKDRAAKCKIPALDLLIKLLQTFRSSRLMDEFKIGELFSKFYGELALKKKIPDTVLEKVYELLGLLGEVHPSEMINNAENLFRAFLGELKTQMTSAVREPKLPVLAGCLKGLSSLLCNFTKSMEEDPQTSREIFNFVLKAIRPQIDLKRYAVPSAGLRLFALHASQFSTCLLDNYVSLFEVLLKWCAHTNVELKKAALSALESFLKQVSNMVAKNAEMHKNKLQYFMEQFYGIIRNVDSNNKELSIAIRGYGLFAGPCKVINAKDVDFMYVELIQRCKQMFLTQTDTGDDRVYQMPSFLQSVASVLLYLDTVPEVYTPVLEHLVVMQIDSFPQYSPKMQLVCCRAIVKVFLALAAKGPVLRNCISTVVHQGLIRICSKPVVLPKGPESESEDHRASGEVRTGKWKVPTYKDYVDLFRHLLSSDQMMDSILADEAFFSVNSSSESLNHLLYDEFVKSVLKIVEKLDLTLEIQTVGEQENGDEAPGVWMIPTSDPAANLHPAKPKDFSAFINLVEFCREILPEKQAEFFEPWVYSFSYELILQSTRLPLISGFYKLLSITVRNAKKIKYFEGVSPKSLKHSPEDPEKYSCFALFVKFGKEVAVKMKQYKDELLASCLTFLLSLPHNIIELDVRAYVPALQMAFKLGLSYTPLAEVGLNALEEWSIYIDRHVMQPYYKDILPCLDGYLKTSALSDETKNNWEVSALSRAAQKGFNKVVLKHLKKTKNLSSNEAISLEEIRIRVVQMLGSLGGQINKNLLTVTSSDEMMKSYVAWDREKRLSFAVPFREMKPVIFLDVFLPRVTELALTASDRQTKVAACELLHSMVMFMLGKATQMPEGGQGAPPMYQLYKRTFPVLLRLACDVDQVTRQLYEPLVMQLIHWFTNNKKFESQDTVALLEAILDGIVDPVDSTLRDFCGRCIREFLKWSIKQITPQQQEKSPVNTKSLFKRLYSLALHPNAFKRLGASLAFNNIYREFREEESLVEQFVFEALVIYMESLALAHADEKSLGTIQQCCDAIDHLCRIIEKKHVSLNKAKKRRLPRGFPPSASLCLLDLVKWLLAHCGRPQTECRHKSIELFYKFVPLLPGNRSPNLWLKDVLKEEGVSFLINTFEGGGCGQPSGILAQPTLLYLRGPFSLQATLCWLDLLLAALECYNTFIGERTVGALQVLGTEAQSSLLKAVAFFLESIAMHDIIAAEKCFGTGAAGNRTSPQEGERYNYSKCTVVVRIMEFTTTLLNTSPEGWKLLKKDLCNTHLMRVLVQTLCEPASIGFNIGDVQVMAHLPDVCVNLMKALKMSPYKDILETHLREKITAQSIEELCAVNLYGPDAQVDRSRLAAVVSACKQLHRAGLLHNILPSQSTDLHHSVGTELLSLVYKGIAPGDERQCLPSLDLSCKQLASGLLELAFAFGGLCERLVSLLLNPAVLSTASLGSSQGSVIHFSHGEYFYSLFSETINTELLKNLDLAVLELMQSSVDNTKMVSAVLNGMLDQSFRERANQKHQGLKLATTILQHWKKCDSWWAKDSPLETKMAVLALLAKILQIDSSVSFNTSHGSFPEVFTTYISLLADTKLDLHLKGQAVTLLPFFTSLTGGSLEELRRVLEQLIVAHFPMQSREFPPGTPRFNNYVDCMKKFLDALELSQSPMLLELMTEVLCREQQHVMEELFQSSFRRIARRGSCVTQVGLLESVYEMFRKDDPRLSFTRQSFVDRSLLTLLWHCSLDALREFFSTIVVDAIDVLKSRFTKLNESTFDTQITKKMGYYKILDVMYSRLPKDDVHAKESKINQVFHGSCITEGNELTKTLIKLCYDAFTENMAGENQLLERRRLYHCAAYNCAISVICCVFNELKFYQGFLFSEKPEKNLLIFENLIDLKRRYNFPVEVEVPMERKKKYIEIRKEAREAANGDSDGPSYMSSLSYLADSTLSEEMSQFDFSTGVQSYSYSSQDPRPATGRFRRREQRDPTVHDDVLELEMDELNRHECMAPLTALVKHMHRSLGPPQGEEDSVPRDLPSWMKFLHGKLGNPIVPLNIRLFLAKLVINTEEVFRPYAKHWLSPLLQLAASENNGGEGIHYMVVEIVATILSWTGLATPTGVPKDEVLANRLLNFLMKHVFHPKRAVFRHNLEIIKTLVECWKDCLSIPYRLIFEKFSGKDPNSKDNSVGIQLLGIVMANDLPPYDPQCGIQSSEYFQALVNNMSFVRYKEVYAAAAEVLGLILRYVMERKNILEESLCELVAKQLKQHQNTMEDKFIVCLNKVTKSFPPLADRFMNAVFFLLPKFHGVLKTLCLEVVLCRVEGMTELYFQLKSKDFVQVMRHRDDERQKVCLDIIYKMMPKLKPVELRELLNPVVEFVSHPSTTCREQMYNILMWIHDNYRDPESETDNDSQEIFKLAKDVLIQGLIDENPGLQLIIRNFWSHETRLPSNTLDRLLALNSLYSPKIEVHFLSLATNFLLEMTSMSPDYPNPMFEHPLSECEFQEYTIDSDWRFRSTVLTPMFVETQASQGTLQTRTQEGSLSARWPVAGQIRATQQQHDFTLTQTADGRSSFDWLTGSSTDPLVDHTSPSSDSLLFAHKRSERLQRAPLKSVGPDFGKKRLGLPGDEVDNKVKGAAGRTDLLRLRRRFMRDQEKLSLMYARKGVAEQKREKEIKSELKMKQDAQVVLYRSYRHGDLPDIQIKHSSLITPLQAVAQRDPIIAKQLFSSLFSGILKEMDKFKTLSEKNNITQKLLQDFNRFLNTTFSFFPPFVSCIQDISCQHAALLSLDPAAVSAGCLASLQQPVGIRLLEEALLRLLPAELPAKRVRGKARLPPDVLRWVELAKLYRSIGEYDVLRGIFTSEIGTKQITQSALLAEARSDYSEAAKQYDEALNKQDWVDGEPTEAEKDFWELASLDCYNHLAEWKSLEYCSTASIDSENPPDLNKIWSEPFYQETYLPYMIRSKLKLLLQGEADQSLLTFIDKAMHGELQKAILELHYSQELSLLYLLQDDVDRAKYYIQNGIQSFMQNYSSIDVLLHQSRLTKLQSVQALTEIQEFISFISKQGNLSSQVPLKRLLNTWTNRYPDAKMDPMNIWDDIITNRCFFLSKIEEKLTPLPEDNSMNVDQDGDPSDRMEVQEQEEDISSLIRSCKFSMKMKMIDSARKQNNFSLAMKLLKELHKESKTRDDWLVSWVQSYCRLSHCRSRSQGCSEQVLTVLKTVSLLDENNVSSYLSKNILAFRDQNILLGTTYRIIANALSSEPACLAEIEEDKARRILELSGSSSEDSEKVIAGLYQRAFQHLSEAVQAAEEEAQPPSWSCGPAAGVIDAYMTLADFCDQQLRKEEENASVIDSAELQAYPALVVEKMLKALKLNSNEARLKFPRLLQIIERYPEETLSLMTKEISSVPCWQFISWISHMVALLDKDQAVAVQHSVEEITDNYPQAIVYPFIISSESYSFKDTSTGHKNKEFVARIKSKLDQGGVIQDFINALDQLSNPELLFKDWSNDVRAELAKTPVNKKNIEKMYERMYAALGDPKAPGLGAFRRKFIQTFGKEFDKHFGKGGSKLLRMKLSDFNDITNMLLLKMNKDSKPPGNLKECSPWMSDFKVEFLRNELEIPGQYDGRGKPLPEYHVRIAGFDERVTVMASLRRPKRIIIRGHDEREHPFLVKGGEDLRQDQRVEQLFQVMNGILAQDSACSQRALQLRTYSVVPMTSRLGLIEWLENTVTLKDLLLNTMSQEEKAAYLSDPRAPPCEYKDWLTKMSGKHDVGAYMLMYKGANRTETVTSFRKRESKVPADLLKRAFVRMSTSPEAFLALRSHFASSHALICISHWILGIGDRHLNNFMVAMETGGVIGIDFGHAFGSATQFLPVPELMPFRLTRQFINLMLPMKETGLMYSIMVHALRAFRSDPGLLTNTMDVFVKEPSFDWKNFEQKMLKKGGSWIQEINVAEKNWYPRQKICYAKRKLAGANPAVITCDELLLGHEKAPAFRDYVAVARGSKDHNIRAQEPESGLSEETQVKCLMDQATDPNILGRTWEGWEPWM

As for `CCOC(=O)N1Cc2nc(-c3ccc(NC(=O)NCCO)c(F)c3)nc(N3CCOC[C@@H]3C)c2C1` [Example 104, (S)-ethyl-2-(3-fluoro-4-(3-(2-hydroxyethyl)ureido)phenyl)-4-(3-methylmorpholino)-5H-pyrrolo[3,4-d]pyrimidine-6(7H)-carboxylate], the figures for the IC50 (at mTOR; at PI3K delta (PI3 Kd); in experiment [1]) were 100 to 1000 nM, above 10 µM and above 10 µM, respectively.

Consider `CCOC(=O)N1Cc2nc(-c3ccc(NC(=O)NC4CC4)c(F)c3)nc(N3CCOC[C@@H]3C)c2C1` [Example 105, (S)-ethyl 2-(4-(3-cyclopropylureido)-3-fluorophenyl)-4-(3-methylmorpholino)-5H-pyrrolo[3,4-d]pyrimidine-6(7H)-carboxylate], for which the half-maximal inhibitory concentration (IC50) at mTOR was 100 to 1000 nM; at PI3K delta (PI3 Kd) it was above 10 µM; in experiment [1], above 10 µM.

Regarding `CCNC(=O)Nc1ncc(-c2nc3c(c(N4CCOC[C@@H]4C)n2)CCN(C)C3)s1` [Example 106, (S)-1-ethyl-3-(5-(7-methyl-4-(3-methylmorpholino)-5,6,7,8-tetrahydropyrido[3,4-d]pyrimidin-2-yl)thiazol-2-yl)urea], the IC50 was 100 to 1000 nM on mTOR, above 10 µM at PI3K delta (PI3 Kd) and above 10 µM in experiment [1].

Take `CCNC(=O)Nc1ccc(-c2nc3c(c(N4CCOC[C@@H]4C)n2)CN(C(=O)OCC)CC3)cc1` [Example 107, (S)-ethyl 2-(4-(3-ethylureido)phenyl)-4-(3-methylmorpholino)-7,8-dihydropyrido[4,3-d]pyrimidine-6(5H)-carboxylate]: the half-maximal inhibitory concentration (IC50) is 100 to 1000 nM on mTOR, above 10 µM on PI3K delta (PI3 Kd) and above 10 µM in experiment [1].

For the molecule `CCNC(=O)Nc1cc(F)c(-c2nc3c(c(N4CCOC[C@@H]4C)n2)CCN(C)C3)cc1F` [Example 108, (S)-1-(2,5-difluoro-4-(7-methyl-4-(3-methylmorpholino)-5,6,7,8-tetrahydropyrido[3,4-d]pyrimidin-2-yl)phenyl)-3-ethylurea], the values for the IC50 (on mTOR; on PI3K delta (PI3 Kd); in experiment [1]) were 100 to 1000 nM, above 10 µM and above 10 µM, respectively.

Turning to `CCNC(=O)Nc1ccc(-c2nc3c(c(N4CCOC[C@@H]4C)n2)CCN(C)C3)c(F)c1` [Example 110, (S)-1-ethyl-3-(3-fluoro-4-(7-methyl-4-(3-methylmorpholino)-5,6,7,8-tetrahydropyrido[3,4-d]pyrimidin-2-yl)phenyl)urea], the IC50 at mTOR is 100 to 1000 nM; on PI3K delta (PI3 Kd), above 10 µM; in experiment [1], above 10 µM.

In the case of `CCNC(=O)Nc1ccc(-c2nc3c(c(N4CCOC[C@@H]4C)n2)CN(C(=O)OCC)C3)c(F)c1` [Example 113, (S)-ethyl-2-(4-(3-ethylureido)-2-fluorophenyl)-4-(3-methylmorpholino)-5H-pyrrolo[3,4-d]pyrimidine-6(7H)-carboxylate], the IC50 on mTOR was 100 to 1000 nM; at PI3K delta (PI3 Kd) it was above 10 µM; in experiment [1] it was above 10 µM.

For the molecule `CCOC(=O)N1Cc2nc(-c3ccc(NC(=O)NCCF)cc3)nc(N3CCOC[C@@H]3C)c2C1` [Example 120, (S)-ethyl 2-(4-(3-(2-fluoroethyl)ureido)phenyl)-4-(3-methylmorpholino)-5H-pyrrolo[3,4-d]pyrimidine-6(7H)-carboxylate], the IC50 at mTOR is below 100 nM; at PI3K delta (PI3 Kd) it was above 10 µM; in experiment [1] it was above 10 µM.

Regarding `CCOC(=O)N1Cc2nc(-c3ccc(NC(=O)Nc4ccncc4)cc3)nc(N3CCOC[C@@H]3C)c2C1` [Example 121, (S)-ethyl 4-(3-methylmorpholino)-2-(4-(3-(pyridin-4-yl)ureido)phenyl)-5H-pyrrolo[3,4-d]pyrimidine-6(7H)-carboxylate], the IC50 on mTOR is below 100 nM; on PI3K delta (PI3 Kd), above 10 µM; in experiment [1], above 10 µM.

In the case of `CCNC(=O)Nc1ccc(-c2nc3c(c(N4CCOC[C@@H]4C)n2)CN(C2CCN(C(=O)OC)CC2)C3)cc1F` [Example 122, (S)-methyl 4-(2-(4-(3-ethylureido)-3-fluorophenyl)-4-(3-methylmorpholino)-5H-pyrrolo[3,4-d]pyrimidin-6(7H)-yl)piperidine-1-carboxylate], the IC50 on mTOR was 100 to 1000 nM; at PI3K delta (PI3 Kd) it was above 10 µM; in experiment [1], above 10 µM.

`CCOC(=O)N1Cc2nc(-c3ccc(NC(=O)NC4CC4)cc3F)nc(N3CCOC[C@@H]3C)c2C1` [Example 131, (S)-ethyl 2-(4-(3-cyclopropylureido)-2-fluorophenyl)-4-(3-methylmorpholino)-5H-pyrrolo[3,4-d]pyrimidine-6(7H)-carboxylate]: the IC50 is 100 to 1000 nM at mTOR, above 10 µM on PI3K delta (PI3 Kd) and above 10 µM in experiment [1].

The values above are taken from patent US8785457B2 (Cellzome Limited, priority 2009, dated 2014).
